Results as given in patent US20260219274A1, “POLYOL SWEETNERS AND CARDIOVASCULAR AND THROMBOTIC EVENT RISK” (THE CLEVELAND CLINIC FOUNDATION, priority 2023, published 2026).

Columns and labels:
washed human platelets = experiment: Intracellular calcium measurements in Fura 2-filled washed platelets; format: cell-based; settings: for thrombin-evoked intracellular Ca2+ release: submaximal (0.02 U) thrombin, pre-incubation with the polyol
Procedure: Measurement of intracellular calcium release in washed platelets was performed as previously described.^41 Further details are provided in supplemental methods.
To isolate washed platelets for intracellular Ca^2+ measurements, PRP was prepared as described above. Next, 100 nM prostaglandin E1 (PGE-1, Catalogue #P5512, Sigma, St. Louis, MO, USA) was added to the PRP and centrifuged at 500×g for 20 min at 22° C. as previously described.^6 After a gentle wash in a modified phosphate buffer saline (NaCl (137 mM), KCl (2.7 mM), Na2HPO4 (12 mM), MgCl2 (1 mM), and glucose (5.5 mM), pH 7.4) with PGE-1 (100 nM), the platelet pellet was spun again at 500×g for 20 min. The platelet pellet was re-suspended in modified Hank's buffered salt solution (HBSS-BSA-glucose; NaCl (0.137 M), KCl (5.4 mM), Na2HPO4 (0.25 mM KH2PO4 (0.44 mM), CaCl2 (1.3 mM), MgSO4 (1.0 mM), NaHCO3 (4.2 mM), glucose (5 mM) and BSA (0.1%)) with 100 nM PGE-1 and incubated with Fura 2-AM ([…]) at 22° C. After 30 min of incubation, an additional centrifugation at 500×g for 30 min was performed to remove excess Fura 2-AM. After resuspension in modified Hank's buffered salt solution the platelet pellet was incubated with xylitol at the indicated concentrations or vehicle for 30 min at 22° C. Intracellular Ca^2+ release was initiated by submaximal concentration of thrombin (0.02 U/mL) and changes in intracellular Ca^2+ monitored via Fura 2-AM fluorescence using 340/380 nm dual-wavelength excitation and an emission of 510 nm.
Washed platelets for intracellular Ca^2+ measurements were prepared by adding 100 nM prostaglandin E1 (PGE-1, Catalogue #P5512, Sigma, St. Louis, MO, USA) to PRP and centrifugation at 500×g, 20 min at 22° C. as previously described^26,51. […] Intra-cellular calcium release was induced by submaximal concentration of thrombin (0.02 U/mL) and changes monitored via Fura 2-AM fluorescence using 340/380 nm dual-wavelength excitation and an emission of 510 nm.

[1] = system: stable subjects undergoing elective diagnostic cardiac evaluation (Validation / US cohort); parameters: species or system human; settings: in vivo
Excerpt: Our second clinical study employed an independent non-overlapping Validation Cohort, where we employed quantitative stable isotope dilution liquid chromatography tandem mass spectrometry (LC-MS/MS) to determine xylitol levels in serum samples from 2,149 patients (non-overlapping from GeneBank at the Cleveland Clinic; clinicaltrials.gov identifier: NCT0059020).^35-36
In both, the Discovery and Validation Cohorts, Major Adverse Cardiovascular Events (MACE) were defined as death, nonfatal myocardial infarction, or nonfatal cerebrovascular accident (stroke) during follow-up. Adjudicated long term survival data were collected through medical records review and Social Security Death Index query. Cardiovascular disease (CVD) was indicated as presence of peripheral artery disease or coronary artery disease, indicated as any clinical history of myocardial infarction, coronary revascularization (including percutaneous coronary intervention, coronary artery bypass surgery), or angiographic evidence of significant stenosis (≥50%) in 1 or more major coronary arteries. Estimated glomerular filtration rate (eGFR) in both cohorts was calculated based on the recent Chronic Kidney Disease Epidemiology Collaboration 2021 CKD-EPI Creatinine equation.^37 Platelet-related hematology analyses were performed with an Advia 120 hematology analyzer (Siemens, New York, NY).^38 Use of anti-platelet agents (=1556) was defined as either aspirin or a P2Y12 agent or both. All observational studies in this example are reported in compliance with the STrengthening the Reporting of Observational studies in Epidemiology (STROBE)-Statement.^39 Information on gender of study participants of the Discovery and Validation Cohorts is reported in Table 1-3.
Stable-isotope-dilution LC-MS/MS was developed to specifically quantify xylitol in human and mouse plasma, urine and feces (fecal pellets were dissolved in water and supernatant subjected to LC-MS/MS). Accuracy and precision of the method to quantify xylitol (separated from its structural isomers arabitol and rabitol) were assessed by a standard addition method 4 of pure synthetic standard into three different plasma pools. Accuracy was 2.4-2.8%, and intra- and inter-day coefficients of variation (CVs), were 1.2-8.9% and 10.9-11.5%, respectively. Urine creatinine was similarly analyzed by stable-isotope-dilution LC-MS/MS using D3-creatinine as internal standard as previously described.^47 Erythritol was quantified by stable-isotope-dilution LC-MS/MS as previously described.^19 Details for all assays can be found in the additional methods.
Continuous variables are summarized as median (interquartile range [IQR]), and categorical variables are presented as %. […]

Compound | thrombin-evoked intracellular Ca2+ release (washed human platelets) | erythritol concentration eliciting significant increase in stimulus-dependent (thrombin) intracellular calcium (washed human platelets; threshold, FIG. 17) | HR [95% CI] incident event risk [1] | HR with 95% CI [1] | adjusted HR [95% CI] incident MACE [1] | HR [95% CI] for incident (3 year) MACE [1]
OC[C@@H](O)[C@@H](O)CO [erythritol] | enhanced | 45 µM | 2.64 [1.79-3.90] | 1.21 (1.12-1.31) | 1.80 [1.18-2.77] | 
OC[C@@H](O)[C@H](O)[C@@H](O)CO [xylitol] | dose-dependently enhanced |  |  |  |  | 2.31 [1.52-3.52]
